Series [1] deals with Trypanosoma cruzi. Kind of series: Assay 6 Trypanosoma cruzi intracellular assay (infected H9C2 cells). The following applies: H9c2, in Rattus norvegicus, 72 h, infected H9C2 rat cardiomyocytes, read-out: pEC50 value against Trypanosoma cruzi (converted). The series is classed as cell-based. The procedure: Compounds were dispensed into black 384-well assay plates (Greiner) by acoustic dispensing (LabCyte ECHO). For potency determinations, eleven-point, one in three dilution curves were generated, with a top concentration of 50 μM. H9C2 rat cardiomyocytes cells were dispensed in T225 tissue culture flasks and after 4 hours they were infected during 18 hours with T. cruzi trypomastigotes in the same T225 tissue culture flasks at a multiplicity of infection of 1. Next, any remaining free trypomastigotes were washed away with PBS and the infected H9C2 cells were harvested by trypsinisation. The infected H9C2 cells were then plated into 384-well plates containing the compounds to be tested, at 2500 cells per well in DMEM media with 2% FBS, 1% Penicillin/Streptomocin, 2 mM L-Glutamine, 1 mM Na Pyruvate and 25 mM HEPES. After 72 h incubation at 37° C. in presence of 5% CO2, the plates were fixed and stained with 4% formaldehyde and 2 μM Draq5 for 3 hours at room temperature. The plates were imaged on a Perkin Elmer Opera high-content imaging system using a 20× air objective. Images were analysed using the Acapella building blocks system (Perkin Elmer). The image analysis algorithm first identified the H9C2 nuclei followed by demarcation of the cytoplasm and identification of intracellular amastigotes. This algorithm reported mean number of parasites per H9C2 cell, the percentage of infected H9C2 cells and the total number of H9C2 cells.

Series [2] can be described thus: Assay 4 solubility assay, ChemiLuminescent Nitrogen Detection (CLND). The series is classed as physicochemical. The following applies: phosphate buffered saline, pH 7.4, aqueous buffer, kinetic from dmso stock, pH 7.4 PBS, from 10 mM DMSO stock, 1 h at room temperature. The procedure:
A 10 mM DMSO stock solution of the compound was prepared. Solvents and Buffers Organic solvents of HPLC grade were used. Ultra pure water (Milli-Q grade) was used. Buffers were prepared with ultra pure water and filtered using 0.45μ cameo filters. Aqueous Buffer Solution: Phosphate Buffer Saline (PBS) @ pH 7.4 was prepared from Sigma dry powder packs, P-3813. Each one was diluted to 1 liter with deionised water. The pH was checked before the solution was used II. Procedures. • a) DMSO concentration was measured. DMSO blanks and ondansetron and caffeine standards were added to the plate (column 12, A, B, C, & D for the blanks and E, F, G, & H for the standards). Plates were covered with foil. When the UV and CLND detectors baselines appeared to be stable, the CLND was zeroed. • b) Once DMSO concentration measurements were complete, a filtration plate was prepared from each parent plate by diluting 5 μl of the 10 mM DMSO stock solution to […] with pH7.4 PBS. • c) After the plates were prepared, they were covered with a plate lid and left to incubate for 1 h at room temperature. • d) Sample was filtered using MILLIPORE MultiScreen Solubility (MSSLBPC10) Filtration Plates, to NUNC V well plates. The filter plate was removed and the NUNC plate was sealed with a power seal plate seal. • e) HPLC/CLND instruments were set up and left to equilibrate. Mobile phases (MeOH:H2O 1:1, flow rate: 0.2 ml/min, sensitivity z10, Gain High). The samples were run. • f) The assay curve fit was done by linear regression and solubility values were reported in μM.

The structures appear in SMILES notation. In brackets after ≈: the same amount, converted by molar mass.

Consider `O=C(Nc1ccc(F)c(-c2cn3nc(C4CCOC4)cnc3n2)c1)N1CCCC1` (racemic) [Example 23, (+,−)-N-(4-fluoro-3-(2-(tetrahydrofuran-3-yl)imidazo[1,2-b] [1,2,4]triazin-6-yl)phenyl)pyrrolidine-1-carboxamide], for which the EC50 in series [1] is 5.01 to 631 nM.
A word on the solubility: it is how much of the substance goes into solution per volume. Read a low solubility as a poorly soluble substance. With `CC(O)c1cnc2nc(-c3cc(NC(=O)N4CCCC4)ccc3F)cn2n1` (racemic) [Example 24, (+,−)-N-(4-fluoro-3-(2-(1-hydroxyethyl)imidazo [1,2-b][1,2,4]triazin-6-yl)phenyl)pyrrolidine-1-carboxamide], the solubility at 1 h in series [2] is 100 to 416 µM (≈ 37 to 154 µg/mL). Further, in series [1], the EC50 is 5.01 to 631 nM.
For `O=C(Nc1ccc(F)c(-c2cn3nc(N4CCCOCC4)cnc3n2)c1)N1CCCC1` [Example 11, N-(3-(2-(1,4-oxazepan-4-yl)imidazo[1,2-b][1,2,4]triazin-6-yl)-4-fluorophenyl)pyrrolidine-1-carboxamide], the EC50 in series [1] was 5.01 to 631 nM.
With `O=C(Nc1ccc(F)c(-c2cn3nc(C4=CCOCC4)cnc3n2)c1)N1CCCC1` [Example 12, N-(3-(2-(3,6-dihydro-2H-pyran-4-yl)imidazo[1,2-b] [1,2,4]triazin-6-yl)-4-fluorophenyl)pyrrolidine-1-carboxamide], the solubility at 1 h in series [2] is 10 to 83 µM (≈ 4.08 to 33.9 µg/mL). Also, the EC50 in series [1] is 5.01 to 631 nM.
Turning to `CC(C)c1cnc2nc(-c3cc(NC(=O)N4CCCC4)ccc3F)cn2n1` [Example 13, N-(4-fluoro-3-(2-isopropylimidazo [1,2-b][1,2,4]triazin-6-yl)phenyl)pyrrolidine-1-carboxamide], the solubility at 1 h in series [2] fell in the range of 100 to 416 µM (≈ 36.8 to 153 µg/mL). For the same molecule, in series [1], the EC50 is 5.01 to 631 nM.
`C=C(C)c1cnc2nc(-c3cc(NC(=O)N4CCCC4)ccc3F)cn2n1` [Example 14, N-(4-fluoro-3-(2-(prop-1-en-2-yl)imidazo [1,2-b][1,2,4]triazin-6-yl)phenyl)pyrrolidine-1-carboxamide] displayed a solubility at 1 h in series [2] of 10 to 83 µM (≈ 3.66 to 30.4 µg/mL). In addition, the EC50 in series [1] was 5.01 to 631 nM.
For `O=C(Nc1ccc(F)c(-c2cn3nc(C4CCOCC4)cnc3n2)c1)N1CCCC1` [Example 15, N-(4-fluoro-3-(2-(tetrahydro-2H-pyran-4-yl)imidazo[1,2-b] [1,2,4]triazin-6-yl)phenyl)pyrrolidine-1-carboxamide] the same measures were 100 to 416 µM (≈ 41 to 171 µg/mL) and 5.01 to 631 nM.
The matching figures for `O=C(Nc1ccc(F)c(-c2cn3nc(-c4ccc(OCCN5CCOCC5)cc4)cnc3n2)c1)N1CCCC1` [Example 17, N-(4-fluoro-3-(2-(4-(2-morpholinoethoxy)phenyl)imidazo[1,2-b][1,2,4]triazin-6-yl)phenyl) pyrrolidine-1-carboxamide]: 1 to 6 µM (≈ 0.532 to 3.19 µg/mL) and 5.01 to 631 nM.
On to `O=C(Nc1ccc(F)c(-c2cn3nc(-c4ccccc4CN4CCOCC4)cnc3n2)c1)N1CCCC1` [Example 20, N-(4-fluoro-3-(2-(2-(morpholinomethyl)phenyl)imidazo[1,2-b] [1,2,4]triazin-6-yl)phenyl)pyrrolidine-1-carboxamide], for which the solubility at 1 h in series [2] is 10 to 83 µM (≈ 5.02 to 41.6 µg/mL). Moreover, the EC50 in series [1] is 5.01 to 631 nM.
With `COCCOc1ccc(-c2cnc3nc(-c4cc(NC(=O)N5CCCC5)ccc4F)cn3n2)cc1` [Example 21, N-(4-fluoro-3-(2-(4-(2-methoxyethoxy)phenyl)imidazo[1,2-b][1,2,4]triazin-6-yl)phenyl) pyrrolidine-1-carboxamide], in series [1], the EC50 was 5.01 to 631 nM.
In turn, `O=C(Nc1ccc(F)c(-c2cn3nc(CCCO)cnc3n2)c1)N1CCCC1` [Example 25, N-(4-fluoro-3-(2-(3-hydroxypropyl)imidazo [1,2-b][1,2,4]triazin-6-yl)phenyl)pyrrolidine-1-carboxamide] registered a solubility at 1 h in series [2] of 100 to 416 µM (≈ 38.4 to 160 µg/mL). Also, in series [1], the EC50 was 5.01 to 631 nM.
The matching figures for `Cc1c(-c2cc(NC(=O)N3CCCC3)ccc2F)nc2ncc(N3CCOCC3)nn12` [Example 27, N-(4-fluoro-3-(7-methyl-2-morpholinoimidazo [1,2-b][1,2,4]triazin-6-yl)phenyl)pyrrolidine-1-carboxamide]: 100 to 416 µM (≈ 42.5 to 177 µg/mL) and 5.01 to 631 nM.
The matching figures for `Cc1c(-c2cccc(NC(=O)N3CCCC3)c2)nc2ncc(N3CCOCC3)nn12` [Example 28, N-(3-(7-methyl-2-morpholinoimidazo [1,2-b][1,2,4]triazin-6-yl)phenyl)pyrrolidine-1-carboxamide]: 100 to 416 µM (≈ 40.7 to 170 µg/mL) and 5.01 to 631 nM.
For `COCCOc1ccccc1-c1cnc2nc(-c3cc(NC(=O)N4CCCC4)ccc3F)cn2n1` [Example 29, N-(4-fluoro-3-(2-(2-(2-methoxyethoxy)phenyl)imidazo[1,2-b][1,2,4]triazin-6-yl)phenyl) pyrrolidine-1-carboxamide] the same measures were 10 to 83 µM (≈ 4.77 to 39.6 µg/mL) and 5.01 to 631 nM.
In the case of `COc1ccccc1-c1cnc2nc(-c3cc(NC(=O)N4CCCC4)ccc3F)cn2n1` [Example 30, N-(4-fluoro-3-(2-(2-methoxyphenyl)imidazo [1,2-b][1,2,4]triazin-6-yl)phenyl)pyrrolidine-1-carboxamide], the solubility at 1 h in series [2] fell in the range of 10 to 83 µM (≈ 4.32 to 35.9 µg/mL). Moreover, the EC50 in series [1] was 5.01 to 631 nM.
In series [2], `O=C(Nc1ccc(F)c(-c2cn3nc(-c4ccccn4)cnc3n2)c1)N1CCCC1` [Example 35, N-(4-fluoro-3-(2-(pyridin-2-yl)imidazo[1,2-b] [1,2,4]triazin-6-yl)phenyl)pyrrolidine-1-carboxamide] displayed a solubility at 1 h of 10 to 83 µM (≈ 4.03 to 33.5 µg/mL). Also, the EC50 in series [1] was 5.01 to 631 nM.
The matching figures for `CC(C)Cc1cnc2nc(-c3cc(NC(=O)N4CCCC4)ccc3F)cn2n1` [Example 36, N-(4-fluoro-3-(2-isobutyl-imidazo[1,2-b][1,2,4]triazin-6-yl)phenyl) pyrrolidine-1-carboxamide]: 10 to 83 µM (≈ 3.82 to 31.7 µg/mL) and 5.01 to 631 nM.
For `O=C(Nc1ccc(F)c(-c2nc3ncc(N4CCOCC4)nn3c2F)c1)N1CCCC1` [Example 40, N-(4-fluoro-3-(7-fluoro-2-morpholinoimidazo [1,2-b][1,2,4]triazin-6-yl)phenyl)pyrrolidine-1-carboxamide] the same measures were 100 to 416 µM (≈ 42.9 to 179 µg/mL) and 5.01 to 631 nM.
For `O=C(Nc1ccc(F)c(-c2cn3nc(N4CCOCC4)cnc3n2)c1)N1CCC1` [Example 42, N-(4-fluoro-3-(2-morpholinoimidazo [1,2-b][1,2,4]triazin-6-yl)phenyl)azetidine-1-carboxamide] the same measures were 100 to 416 µM (≈ 39.7 to 165 µg/mL) and 5.01 to 631 nM.
As to `O=C(Nc1ccc(Cl)c(-c2cn3nc(N4CCOCC4)cnc3n2)c1)N1CCCC1` [Example 43, N-(4-chloro-3-(2-morpholinoimidazo[1,2-b][1,2,4]triazin-6-yl)phenyl)pyrrolidine-1-carboxamide], the solubility at 1 h in series [2] is 10 to 83 µM (≈ 4.28 to 35.5 µg/mL). Besides, the EC50 in series [1] is 5.01 to 631 nM.
The matching figures for `CC(=O)c1cnc2nc(-c3cc(NC(=O)N4CCCC4)ccc3F)cn2n1` [Example 46, N-(3-(2-acetylimidazo [1,2-b][1,2,4]triazin-6-yl)-4-fluorophenyl) pyrrolidine-1-carboxamide]: 100 to 416 µM (≈ 36.8 to 153 µg/mL) and 5.01 to 631 nM.
The matching figures for `CC(C)=Cc1cnc2nc(-c3cc(NC(=O)N4CCCC4)ccc3F)cn2n1` [Example 47, N-(4-fluoro-3-(2-(2-methylprop-1-en-1-yl)imidazo[1,2-b][1,2,4]triazin-6-yl)phenyl) pyrrolidine-1-carboxamide]: 10 to 83 µM (≈ 3.8 to 31.6 µg/mL) and 5.01 to 631 nM.
Take `O=C(Nc1cnc2nc(-c3cc(NC(=O)N4CCCC4)ccc3F)cn2n1)C1CCCO1` (stereo not drawn) [Example 49, N-(4-fluoro-3-(2-(tetra-hydrofuran-2-carboxamido)imidazo [1,2-b][1,2,4]triazin-6-yl)phenyl)pyrrolidine-1-carboxamide]: the solubility at 1 h in series [2] lay within 10 to 83 µM (≈ 4.39 to 36.5 µg/mL). Moreover, the EC50 in series [1] was 5.01 to 631 nM.
`CC(C)OC(=O)Nc1cnc2nc(-c3cc(NC(=O)N4CCCC4)ccc3F)cn2n1` [Example 54, isopropyl (6-(2-fluoro-5-(pyrrolidine-1-carboxamido)phenyl)imidazo[1,2-b][1,2,4]triazin-2-yl)carbamate]: in series [2], the solubility at 1 h is 10 to 83 µM (≈ 4.27 to 35.5 µg/mL). For the same molecule, the EC50 in series [1] was 5.01 to 631 nM.

The values above are taken from US10065965B2, “Imidazo[1,2-B][1,2,4]triazine derivatives as antiparasitic agents” (GlaxoSmithKline Intellectual Property Development Limited, priority 2015, dated 2018).
